Source: patent US20250136617A1 (The Regents of the University of Colorado, A Body Corporate, priority 2022, published 2025)
Entries after “also recorded” stand apart in the source; their conditions may differ. Where two headings read alike, the source gives them in different places.

Assays:
Format in all cases: cell-based
CXCR4 [1] = target: T1, CXCR4 (Homo sapiens, UniProt P61073); experiment: cAMP signaling assay, oxazole scaffold (forskolin-induced adenylate cyclase, CHO-K1 CXCR4 cells); design: host or cells: CHO-K1; settings: listed as UCUF-728
Experimental: The CXCR4 receptor is a G-protein coupled receptor (GPCR) coupled to the Gi class, whose primary role is inhibition of adenylate cyclase. The ability of UCUF-728 to induce Gi-mediated cAMP-inhibitory cellular response was tested.
Forskolin at final concentration of […] was added to all wells using the TECAN dispenser. […] PathHunter CHO-K1 CXCR4 cells (DiscoverX, Fremont, CA) were added to compounds at 3,000 cells/well, centrifuged at 1000 rpm for 30 sec and incubated for 30 min at room temperature. DMSO (Sigma Aldrich, St. Louis, MO) was normalization to 0.5%. 5 μL of 4× Eu-cAMP tracer working solution was added to all wells followed by addition of 5 μL of 4× Ulight-anti-cAMP working solution to all wells. Plates were centrifuged at 1000 rpm for 1 min and incubated for 1 hr at room temperature then read using CLARIOstar Plus (BMG LABTECH Inc., Cary, NC) Lance CAMP protocol.

CXCR4 [2] = target: T1, CXCR4; experiment: Calcium flux (Fluo-4) in CEM-CCRF cells; design: host or cells: CEM-CCRF; settings: 10 μM; listed as UCUF-965
Experimental: Fluo-4 Direct Calcium Assay Kit (Invitrogen; F10472) reagents were prepared according to the supplier guidelines at 2× concentration and allowed to equilibrate to room temperature in the dark. […] Following incubation, 25 μL of cell suspension loaded with Fluo-4 Direct Calcium reagent was dispensed into a 384-well black wall clear-bottom plate (Corning; 3764). […] Calcium flux responses were measured on the BMG LABTECH CLARIOstar Plus (BMG LABTECH Inc., Cary, NC) using the CLARIOstar Plus supplier excitation and emission settings for Fluo-4 (Calcium Saturated). Measurements were conducted using a bottom-read kinetic well-mode with measurements occurring at 0.5 sec intervals for 150 sec and injection occurring at 10.0 sec.

miR-15b = miR-15b expression in murine diabetic and non-diabetic fibroblasts; settings: 24 h, response even at 0.1 μM; listed as UCUF-965
Experimental: Total RNA was extracted with TRIzol reagent (Invitrogen, Carlsbad, CA, USA) according to the manufacturer's established protocol. RNA was converted into cDNA using the SuperScript First-Strand Synthesis System (Invitrogen, Life Technologies). Primers and probes for mouse miR-15b and miR-29a were acquired from Applied Biosystems TaqMan gene expression assay (Applied Biosystems, Foster City, CA). Quantitative PCR was performed on a BIO-RAD CFX96 according to the manufacturer's instructions. Quantitative values of genes of interest are normalized based on U6. Samples (n=5 per group) were amplified in triplicate and results were averaged for each individual sample. The ΔΔCT method was used to calculate relative gene expression. Results are reported as mean±SD.
The expression of specific micro-RNA levels reported to be crucial in the wound-healing process were measured in order to validate and correlate the in vitro activity of UCUF-965 as a selective CXCR4 receptor modulator to micro-RNA expression. Murine diabetic and non-diabetic fibroblasts were cultured with increasing concentrations of the compound. The cells were incubated for 24 h and then total cellular RNA was isolated to examine the ability of the compound to correct the abnormal expression levels of miR-15b, miR-29a, and miR-146a. […]

CXCR4 [3] = target: T1, CXCR4; experiment: Adenylate cyclase (cAMP inhibition) assay, thiadiazine scaffold, CHO-CXCR4-cAMP cells; design: host or cells: CHO-K1
Experimental: Tango™ CXCR4-bla U2OS Cells (Invitrogen; K1779) were used for (β-arrestin recruitment assays and maintained as a monolayer culture in McCoy's 5a (Corning; 10-050-CV) supplemented with 10% dialyzed Fetal Bovine Serum (Gibco; 26400-044), 0.1 mM MEM Non-essential amino acids solution, 25 mM HEPES solution (Corning; 25-060-CI), 1 mM Sodium Pyruvate (Gibco; 11360-070), 200 μg/mL Zeocin selection reagent (Gibco; R25001), 50 μg/mL Hygromycin B (Gibco, 10687010), and 100 μg/mL Geneticin (G418 Sulfate) (Gibco, 10131035). U2OS cells were subcultured twice weekly by 0.05% Trypsin-EDTA treatment (Corning; 25-051-CI) and passaged to continue exponential growth phase for cell signaling assays. All cell cultures were maintained in cell culture incubators at 37° C. with 5% CO2. CHO-K1 CXCR4 cells (DiscoverX, Fremont, CA, USA) were used for cAMP inhibition assays and maintained as a monolayer culture in DMEM/F12 (Corning; 10-091-CV) supplemented with 10% Fetal Bovine Serum (Corning; 35-011-CV) and 100IU penicillin, […] streptomycin sulfate (Corning; 30-002-CI) and […] G418 (Gibco; 101310350. Cells were subculture 2 times weekly by o.o5% Trypsin-EDTA treatment (Corning; 25-051-CI) and passaged to continue exponential growth phase for cell signaling assays. All cell cultures were maintained in cell culture incubators at 37° C. with 5% CO2.CEM-CCRF cells (ATCC CCL-119) were used in both the migration and calcium flux assays and were cultured in growth media consisting of RPMI 1640 (Corning; 10-040-CV) supplemented with 10% Fetal Bovine Serum (Corning; 35-011-CV), and 100 IU penicillin, […] streptomycin sulfate (Corning; 30-002-CI). […] Cells were harvested for use in migration and calcium flux assays at 2.0×10^6 cells/mL to 2.5×10^6 cells/mL and resuspended in assay media to desired density for respective experiments.
Compounds and DMSO normalization to 0.5% were dispensed using the TECAN D300e digital dispenser into the wells of a 384-well white wall clear-bottom assay plate (Griener 781983). […] This cell suspension was dispensed at 20 μL per well into the assay plate and allowed to incubate overnight for approximately 18 hrs with compounds in cell culture incubator at 37° C. with 5% CO2. Following incubation, DMEM/F12 media was gently removed, then the Lance Ultra cAMP Kit (Perkin Elmer; TRF0263) was performed according to the supplier guidelines. […] Time-resolved fluorescence was measured on the BMG LABTECH CLARIOstar Plus (BMG LABTECH Inc., Cary, NC) using the Lance Ultra cAMP kit guidelines for excitation and emission. […]

T1 sequence (P61073 whole entry): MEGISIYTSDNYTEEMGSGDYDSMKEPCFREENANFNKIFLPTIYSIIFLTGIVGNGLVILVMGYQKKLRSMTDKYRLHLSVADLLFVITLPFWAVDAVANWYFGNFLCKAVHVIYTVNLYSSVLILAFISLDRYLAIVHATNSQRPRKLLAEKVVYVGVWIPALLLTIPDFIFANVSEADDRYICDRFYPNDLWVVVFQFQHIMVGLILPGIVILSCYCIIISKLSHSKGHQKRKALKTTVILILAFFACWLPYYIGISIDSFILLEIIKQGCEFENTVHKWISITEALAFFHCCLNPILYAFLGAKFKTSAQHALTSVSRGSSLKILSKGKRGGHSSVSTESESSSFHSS

## COc1ccc(OC)c(NS(=O)(=O)c2ccc(-c3cnc(C4CC4)o3)cc2)c1 [Oxazole Entry 19, 4-(2-Cyclopropyloxazol-5-yl)-N-(2,5-dimethoxyphenyl)benzenesulfonamide]
CXCR4 [1]
  cAMP signaling / forskolin-induced adenylate cyclase: did not inhibit forskolin-induced adenylate cyclase; also recorded: does not show dose-dependent activity

## CCOc1ccccc1-c1nnc2n1N=C(c1ccc(N3CCCC3)cc1)CS2 [Thiadiazine Entry 23, 3-(2-ethoxyphenyl)-6-(4-(pyrrolidin-1-yl)phenyl)-7H-[1,2,4]triazolo[3,4-b][1,3,4]thiadiazine]
CXCR4 [2]
  calcium flux activity: induce CXCR4-mediated calcium flux
miR-15b
  miR-15b expression: decreased the expression of miR-15b; also recorded: suppression of miR15b
CXCR4 [3]; listed as UCUF-965
  cAMP inhibition activity: dose-dependent partial agonist response; also recorded: dose-dependent partial inhibition of forskolin-stimulated cAMP production; also recorded: did not inhibit the action of SDF-1α; also recorded: doubling the Emax
CXCR4 [3]; log value, n=3
  cAMP log EC50: −7.3±0.2 M
CXCR4 [3]; read-out: cAMP maximal response (Emax) of SDF-1α potentiated by, pretreatment with 0.1 μM UCUF-965
  Emax: 110%
CXCR4 [3]; read-out: cAMP maximal response (Emax) of SDF-1α potentiated by, pretreatment with 1 μM UCUF-965
  Emax: 201%
CXCR4 [3]; read-out: cAMP maximal response (Emax) of SDF-1α potentiated by, pretreatment with 5 μM UCUF-965
  Emax: 209%
